Laboratory results taken from patent publication EP3871665B1, “INHIBITORS OF RNA-BINDING PROTEINS AS ANTI-CANCER DRUGS” (priority 2020, dated 2021).

Columns and labels:
[1] = system: ES-2 IGF2BP1-KO cells re-expressing GFP-IGF2BP1C253/336A; experiment: 2D growth / proliferation (cell confluence, IncuCyte S3), cells re-expressing C253/336A mutant; assay type: cell-based
Procedure: (§1) Statistical significance was analyzed by logrank test. […] Modified cysteines are highlighted in bold and upper position. […] Right: Local atomic fluctuations around cysteine residues. […] (A-C) RNA-dependent protein-protein association assay. […] EV (1) indicates mock-transfected controls. Representative Western (A) and Northern (C) blots are shown. P, pulldown; I, input. […] A representative Western blot analysis is shown in (C). […] Six mice were analyzed per condition. Error bars indicate standard deviation. […] Error bars indicate standard deviation of three analyses. […] DMSO-treated cells were used for comparisons. […] (*) p < 0.05, (**) p < 0.01, (***) p < 0.001. […] Data represent the mean ± SD (n = 6). […] (**) p < 0.01.
(§2) To probe if the identified residues are druggable targets, a search for chemical probes with exquisite chemo- and regioselectivity to cysteine residues was performed and their ability to target IGF2BP1's Cys253 and Cys336 was tested, whilst functioning as inhibitors. […] Both probes are known to covalently modify cysteine residues in a highly site-specific manner. […] The initial assay was set to observe if the probes influence the 2D growth, determined here as cell density, of ES-2 cells in a IGF2BP1-Cys253/336-dependent manner. IC50 values were determined by measuring the cell viability or cell confluence of cells incubated with increasing concentrations of J2 and J5.

[2] = system: ES-2 IGF2BP1-KO cells re-expressing GFP-IGF2BP1; experiment: 2D growth / proliferation (cell confluence, IncuCyte S3), cells re-expressing wild type IGF2BP1; assay type: cell-based
Procedure: as §1
To probe if the identified residues are druggable targets, a search for chemical probes with exquisite chemo- and regioselectivity to cysteine residues was performed and their ability to target IGF2BP1's Cys253 and Cys336 was tested, whilst functioning as inhibitors. […] Both probes are known to covalently modify cysteine residues in a highly site-specific manner. […] These probes were then used in ES-2 IGF2BP1 KO cells, re-expressing either the wild type version of IGF2BP1 or the C253/336A mutant. The initial assay was set to observe if the probes influence the 2D growth, determined here as cell density, of ES-2 cells in a IGF2BP1-Cys253/336-dependent manner. IC50 values were determined by measuring the cell viability or cell confluence of cells incubated with increasing concentrations of J2 and J5.

[3] = Drug-likeness assessment / solubility in the assays; assay type: physicochemical
[4] = system: tumors bearing ES-2 cells re-expressing the C253/336A mutant; experiment: Xenograft tumor growth, ES-2 cells re-expressing C253/336A mutant; assay type: in vivo, female SCID mice; details: 0.1 mg/kg daily intraperitoneally
[5] = system: ES-2 IGF2BP1-KO cells re-expressing GFP-IGF2BP1C253/336A; experiment: Spheroid Matrigel invasion assay, cells re-expressing C253/336A mutant; assay type: cell-based; details: up to 6 µM; 24h post-treatment
[6] = system: panel of cancer cell lines; experiment: Cell proliferation (IncuCyte S3 confluence) in a panel of cancer cell lines; assay type: cell-based; details: 72h
[7] = system: xenografts bearing ES-2 cells re-expressing the wild-type IGF2BP1 (GFP-IGF2BP1); details: 0.1 mg/kg daily intraperitoneally; GFP-IGF2BP1 tumors
[8] = system: ES-2 IGF2BP1-KO cells re-expressing the wild type GFP-IGF2BP1; experiment: Cell viability (CellTiter Glo), cells re-expressing wild type IGF2BP1; assay type: cell-based
Procedure: as §1
To probe if the identified residues are druggable targets, a search for chemical probes with exquisite chemo- and regioselectivity to cysteine residues was performed and their ability to target IGF2BP1's Cys253 and Cys336 was tested, whilst functioning as inhibitors. […] The initial assay was set to observe if the probes influence the 2D growth, determined here as cell density, of ES-2 cells in a IGF2BP1-Cys253/336-dependent manner. IC50 values were determined by measuring the cell viability or cell confluence of cells incubated with increasing concentrations of J2 and J5.

[9] = system: ES-2 IGF2BP1-KO cells re-expressing the GFP-IGF2BP1C253/336A mutant; experiment: Cell viability (CellTiter Glo), cells re-expressing C253/336A mutant; assay type: cell-based; details: cell viability 72h, read-out: IC50C253/336A
Procedure: as §1, §2

[10] = biological target: T1, IGF2BP1 (Homo sapiens, UniProt Q9NZI8); experiment: Site-specific protein modification (Cys-to-Dha conversion), LC-MS/MS readout; assay type: biochemical
T1 construct: made in house
T1 sequence (Q9NZI8 whole entry): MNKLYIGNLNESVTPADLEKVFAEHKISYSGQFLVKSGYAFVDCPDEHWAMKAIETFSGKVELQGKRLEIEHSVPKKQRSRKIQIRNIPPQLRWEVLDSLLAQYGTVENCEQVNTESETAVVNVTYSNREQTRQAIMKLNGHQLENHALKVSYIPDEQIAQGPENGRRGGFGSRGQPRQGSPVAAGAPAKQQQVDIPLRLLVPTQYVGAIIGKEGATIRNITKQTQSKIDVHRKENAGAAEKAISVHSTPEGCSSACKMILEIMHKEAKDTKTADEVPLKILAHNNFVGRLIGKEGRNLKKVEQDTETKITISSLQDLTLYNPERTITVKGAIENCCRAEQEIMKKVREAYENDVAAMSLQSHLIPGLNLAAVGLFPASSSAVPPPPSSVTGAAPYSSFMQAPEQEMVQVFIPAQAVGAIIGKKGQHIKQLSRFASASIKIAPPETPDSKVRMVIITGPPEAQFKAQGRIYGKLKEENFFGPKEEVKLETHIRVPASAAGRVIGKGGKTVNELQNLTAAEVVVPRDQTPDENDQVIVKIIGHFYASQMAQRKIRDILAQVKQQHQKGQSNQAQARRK
Procedure: as §1
A multiple-Cys-containing RNA-binding protein with a recognized role in cancer is selected, for example and not limited to, the Insulin-like growth factor 2 mRNA binding protein 1 (IGF2BP1). It is then expressed in bacteria (not limited to), purified and submitted to site-specific protein modification reactions in vitro using cysteine-directed probes (Cys-to-Dha conversion), for example and not limited to, the compound 2,5 dibromohexanediamide (1). The reactions are performed in mild conditions, PBS buffer pH 8.0 for 1 h at 37∘C, using increasing equivalents of 1. The resulting reaction is then purified with a spin column and submitted to trypsin digestion followed by LC-MS/MS using standard protocols. The identification of Dha-modified peptides is performed by adding the corresponding mass shift of 33.9878 m/z (Dha) as a post-translational modification in the global search for modifications. The Dha conversion of specific cysteine residues is located within the primary sequence of the protein of interest (POI) to uncover preferentially modified cysteine residues.

equivalents at which Cys253 was modified ([10]; PBS buffer pH 8.0, 1 h, 37°C)	equivalents at which Cys336 was modified ([10]; PBS buffer pH 8.0, 1 h, 37°C)	equivalents at which Cys336 was modified, in some reactions ([10]; in some reactions)	equivalents at which almost all cysteines (exception Cys110) were modified ([10]; in vitro)	Compound	growth of cells ([1]; 1µM, cells expressing the C253/336A mutant)	IC50 ([1]; Homo sapiens, ES-2 cells expressing the C253/336A mutant, confluence at 72h)	growth of ES-2 cells ([2]; 1µM, cells re-expressing the wild type protein)	IC50 ([2]; cells expressing wild type IGF2BP1, confluence at 72h, DMSO = 100% growth)	selective cytoreductive effect ([2]; wild type vs C253/336A mutant cells)	solubility [3]	anti-tumor effect (tumor volume, tumor mass) [4]	invasion [5]	potency in a panel of cancer cell lines [6]	anti-tumor effect (tumor volume, tumor mass) [7]	IC50 ([8]; cell viability 72h, CellTiter Glo)	selectivity to ES-2 cells re-expressing the wild type IGF2BP1 ([8]; wild type vs C253/336A)	IC50 [9]
				O=C(/C=C/C(=O)c1ccccc1)NCCNc1ccc([N+](=O)[O-])c2nonc12 [J2, (E)-N-(2-((7-nitrobenzo[c][1,2,5]oxadiazol-4-yl)amino)ethyl)-4-oxo-4-phenylbut-2-enamide]	no substantial impact	2200 nM	strong impairment	840 nM	2 fold	solubility problems							
				CCNC(=O)/C=C/C(=O)c1ccccc1 [J5, (E)-N-ethyl-4-oxo-4-phenylbut-2-enamide]						much higher solubility	absolutely no effect	unchallenged invasion	potency as anti-cancer drug in all of them	strong anti-tumor effect	970 nM	1.8 fold	1750 nM
200 eq	300 eq	200 eq	above 500 eq	NC(=O)C(Br)CCC(Br)C(N)=O (stereo not drawn) [compound 1, 2,5 dibromohexanediamide]													
